# In ChEMBL document CHEMBL2073750, “Differential interaction of 3-hydroxy-3-methylglutaryl-coa reductase inhibitors with ABCB1, ABCC2, and OATP1B1” (Drug Metab Dispos, 2005):
# Experiments:
# Assay type in all cases: functional, cell-based
# [1] = molecular target: ATP-binding cassette sub-family C member 2 (Homo sapiens, UniProt Q92887); assay: TP_TRANSPORTER: inhibition of calcein-AM efflux in MRP2-expressing MDCK cells
# [2] = molecular target: T1, Solute carrier organic anion transporter family member 1B1 (Homo sapiens, UniProt Q9Y6L6); assay: TP_TRANSPORTER: inhibition of estradiol-17beta-glucuronide uptake(estradiol-17beta-glucuronide:0.02uM) in OATP1B1-expressing HEK293 cells
# T1 sequence (Q9Y6L6 whole entry): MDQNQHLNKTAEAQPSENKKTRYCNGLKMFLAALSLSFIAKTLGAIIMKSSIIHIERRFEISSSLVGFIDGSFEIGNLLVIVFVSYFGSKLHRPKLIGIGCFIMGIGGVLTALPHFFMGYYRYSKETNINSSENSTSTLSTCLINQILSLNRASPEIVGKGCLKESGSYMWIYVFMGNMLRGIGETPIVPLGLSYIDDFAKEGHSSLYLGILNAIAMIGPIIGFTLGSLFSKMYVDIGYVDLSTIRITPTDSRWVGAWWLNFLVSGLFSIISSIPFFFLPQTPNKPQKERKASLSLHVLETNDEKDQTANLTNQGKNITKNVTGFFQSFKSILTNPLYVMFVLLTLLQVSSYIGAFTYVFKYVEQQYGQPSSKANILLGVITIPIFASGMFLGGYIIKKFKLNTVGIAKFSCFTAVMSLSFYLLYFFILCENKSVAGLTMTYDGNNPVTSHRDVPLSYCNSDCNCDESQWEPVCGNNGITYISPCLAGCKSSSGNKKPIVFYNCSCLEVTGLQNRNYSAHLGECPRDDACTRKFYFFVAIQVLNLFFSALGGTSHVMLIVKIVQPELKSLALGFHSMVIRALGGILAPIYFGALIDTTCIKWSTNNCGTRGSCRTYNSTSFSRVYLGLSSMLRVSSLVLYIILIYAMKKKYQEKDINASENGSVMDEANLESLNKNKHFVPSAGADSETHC
# [3] = molecular target: ATP-dependent translocase ABCB1 (Homo sapiens, UniProt P08183); assay: TP_TRANSPORTER: inhibition of calcein-AM efflux in MDR1-expressing MDCK cells
# Sequence of ATP-dependent translocase ABCB1 (P08183 whole entry): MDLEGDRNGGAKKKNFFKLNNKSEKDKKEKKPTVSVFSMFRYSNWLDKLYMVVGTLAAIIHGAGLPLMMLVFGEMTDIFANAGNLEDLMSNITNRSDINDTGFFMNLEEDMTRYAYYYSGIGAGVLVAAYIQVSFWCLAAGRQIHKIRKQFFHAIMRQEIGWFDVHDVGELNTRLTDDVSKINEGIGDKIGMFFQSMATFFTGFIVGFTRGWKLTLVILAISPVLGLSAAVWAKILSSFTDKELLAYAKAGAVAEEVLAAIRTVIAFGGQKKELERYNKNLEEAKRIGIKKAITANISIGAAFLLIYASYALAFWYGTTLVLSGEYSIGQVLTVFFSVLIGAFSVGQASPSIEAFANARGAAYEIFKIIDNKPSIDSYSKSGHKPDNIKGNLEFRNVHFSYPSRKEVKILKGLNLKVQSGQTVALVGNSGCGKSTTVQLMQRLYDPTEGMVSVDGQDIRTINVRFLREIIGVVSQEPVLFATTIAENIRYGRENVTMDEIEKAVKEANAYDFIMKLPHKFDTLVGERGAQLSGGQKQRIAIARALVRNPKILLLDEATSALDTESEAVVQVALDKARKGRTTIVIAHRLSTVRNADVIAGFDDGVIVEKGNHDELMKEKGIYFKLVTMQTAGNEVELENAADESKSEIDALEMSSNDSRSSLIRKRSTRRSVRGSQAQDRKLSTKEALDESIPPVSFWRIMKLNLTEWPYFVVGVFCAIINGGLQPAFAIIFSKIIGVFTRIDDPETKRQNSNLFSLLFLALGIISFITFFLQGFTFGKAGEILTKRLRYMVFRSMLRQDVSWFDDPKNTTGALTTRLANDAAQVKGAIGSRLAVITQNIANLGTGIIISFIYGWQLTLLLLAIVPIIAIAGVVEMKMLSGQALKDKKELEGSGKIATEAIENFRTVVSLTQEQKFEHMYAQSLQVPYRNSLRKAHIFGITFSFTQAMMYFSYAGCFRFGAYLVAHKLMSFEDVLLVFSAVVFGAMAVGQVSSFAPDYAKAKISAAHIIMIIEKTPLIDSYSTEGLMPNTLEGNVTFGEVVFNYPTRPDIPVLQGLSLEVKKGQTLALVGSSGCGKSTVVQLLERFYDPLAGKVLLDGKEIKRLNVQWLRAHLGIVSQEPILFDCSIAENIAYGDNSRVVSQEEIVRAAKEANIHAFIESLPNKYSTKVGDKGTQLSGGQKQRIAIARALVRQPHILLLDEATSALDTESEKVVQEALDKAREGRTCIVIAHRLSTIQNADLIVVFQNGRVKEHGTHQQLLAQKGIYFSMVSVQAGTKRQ
# Sequence of ATP-binding cassette sub-family C member 2 (Q92887 whole entry): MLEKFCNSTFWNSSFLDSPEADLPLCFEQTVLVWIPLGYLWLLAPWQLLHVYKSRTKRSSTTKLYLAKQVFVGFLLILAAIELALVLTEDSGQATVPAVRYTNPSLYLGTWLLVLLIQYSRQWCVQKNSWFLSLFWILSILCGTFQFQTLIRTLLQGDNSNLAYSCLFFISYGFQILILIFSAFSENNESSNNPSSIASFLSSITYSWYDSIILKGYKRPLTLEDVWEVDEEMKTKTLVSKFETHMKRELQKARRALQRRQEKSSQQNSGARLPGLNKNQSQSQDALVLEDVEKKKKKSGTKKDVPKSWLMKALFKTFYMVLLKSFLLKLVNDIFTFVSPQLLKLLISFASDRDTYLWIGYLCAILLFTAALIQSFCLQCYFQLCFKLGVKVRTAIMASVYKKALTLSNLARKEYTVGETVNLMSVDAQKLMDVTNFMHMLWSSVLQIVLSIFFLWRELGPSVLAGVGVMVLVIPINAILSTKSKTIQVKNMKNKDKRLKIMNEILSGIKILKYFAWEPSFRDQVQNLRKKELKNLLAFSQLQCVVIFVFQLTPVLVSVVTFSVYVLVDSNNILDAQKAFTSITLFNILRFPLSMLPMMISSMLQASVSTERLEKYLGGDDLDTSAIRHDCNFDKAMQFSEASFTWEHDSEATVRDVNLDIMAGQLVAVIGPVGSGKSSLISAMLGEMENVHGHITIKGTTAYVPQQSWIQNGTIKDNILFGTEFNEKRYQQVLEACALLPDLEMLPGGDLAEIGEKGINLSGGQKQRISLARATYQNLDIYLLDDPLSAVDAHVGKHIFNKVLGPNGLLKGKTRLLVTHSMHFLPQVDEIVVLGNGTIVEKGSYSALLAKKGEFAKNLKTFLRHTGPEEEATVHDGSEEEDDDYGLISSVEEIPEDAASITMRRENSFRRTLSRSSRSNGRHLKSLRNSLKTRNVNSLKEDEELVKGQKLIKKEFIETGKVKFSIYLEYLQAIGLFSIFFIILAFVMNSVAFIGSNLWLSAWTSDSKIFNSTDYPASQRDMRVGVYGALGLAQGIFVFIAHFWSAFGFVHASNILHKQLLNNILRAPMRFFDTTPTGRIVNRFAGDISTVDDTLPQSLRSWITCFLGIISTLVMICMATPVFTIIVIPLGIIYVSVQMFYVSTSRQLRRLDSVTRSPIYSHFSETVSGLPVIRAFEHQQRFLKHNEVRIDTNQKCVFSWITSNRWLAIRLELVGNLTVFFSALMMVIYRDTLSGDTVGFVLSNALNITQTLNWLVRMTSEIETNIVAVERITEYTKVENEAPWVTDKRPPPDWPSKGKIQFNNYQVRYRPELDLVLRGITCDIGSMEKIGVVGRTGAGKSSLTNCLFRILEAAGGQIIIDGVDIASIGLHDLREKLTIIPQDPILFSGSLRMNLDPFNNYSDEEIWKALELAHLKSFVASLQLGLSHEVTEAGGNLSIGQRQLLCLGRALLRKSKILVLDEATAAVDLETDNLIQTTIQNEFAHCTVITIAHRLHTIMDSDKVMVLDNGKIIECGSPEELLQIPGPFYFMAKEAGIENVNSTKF
Structure (SMILES),IC50 ([1]; read-out: IC50),IC50 ([2]; read-out: IC50),IC50 ([3]; read-out: IC50),IC50 ([1]; mdck),IC50 ([3]; mdck),IC50 ([2]; hek293)
CC(C)c1c(C(=O)Nc2ccccc2)c(-c2ccccc2)c(-c2ccc(F)cc2)n1CC[C@@H]1C[C@@H](O)CC(=O)O1 [ATORVASTATIN LACTONE],15 µM,2.6 µM,14 µM,–,–,–
CC[C@H](C)C(=O)O[C@H]1C[C@@H](C)C=C2C=C[C@H](C)[C@H](CC[C@@H](O)C[C@@H](O)CC(=O)O)[C@H]21 [LOVASTATIN ACID],–,4 µM,–,is not an inhibitor [IC50=-(>100uM)],is not an inhibitor [IC50=-(>100uM)],–
CC[C@H](C)C(=O)O[C@H]1C[C@H](O)C=C2C=C[C@H](C)[C@H](CC[C@@H](O)C[C@@H](O)CC(=O)O)[C@H]21 [PRAVASTATIN],–,–,–,is not an inhibitor [IC50=-(>100uM)],is not an inhibitor [IC50=-(>100uM)],is not an inhibitor [IC50=-(>100uM)]
CC[C@]1(O)C[C@@H]2CN(CCc3c([nH]c4ccccc34)[C@@](C(=O)OC)(c3cc4c(cc3OC)N(C)[C@H]3[C@@](O)(C(=O)OC)[C@H](OC(C)=O)[C@]5(CC)C=CCN6CC[C@]43[C@@H]65)C2)C1 [VINBLASTINE],21 µM,–,–,–,–,–
CO[C@H]1/C=C/O[C@@]2(C)Oc3c(C)c(O)c4c(O)c(cc(O)c4c3C2=O)NC(=O)/C(C)=C\C=C\[C@H](C)[C@H](O)[C@@H](C)[C@@H](O)[C@@H](C)[C@H](OC(C)=O)[C@@H]1C [RIFAMYCIN],–,0.23 µM,–,–,–,–
CC(C)c1c(C(=O)Nc2ccccc2)c(-c2ccccc2)c(-c2ccc(F)cc2)n1CC[C@@H](O)C[C@@H](O)CC(=O)O [ATORVASTATIN],–,–,–,is not an inhibitor [IC50=-(>100uM)],is not an inhibitor [IC50=-(>100uM)],–
CC[C@H](C)C(=O)O[C@H]1C[C@@H](C)C=C2C=C[C@H](C)[C@H](CC[C@@H]3C[C@@H](O)CC(=O)O3)[C@H]21 [LOVASTATIN],–,28 µM,–,is not an inhibitor [IC50=-(>33uM)],–,–
CCC(C)(C)C(=O)O[C@H]1C[C@@H](C)C=C2C=C[C@H](C)[C@H](CC[C@@H](O)C[C@@H](O)CC(=O)O)[C@H]21 [TENIVASTATIN],–,3.6 µM,–,is not an inhibitor [IC50=-(>100uM)],is not an inhibitor [IC50=-(>100uM)],–
